From ChEMBL document CHEMBL1148851, “Chemoenzymatic synthesis and in vitro studies on the hydrolysis of antimicrobial monoglycosyl diglycerides by pancreatic lipase” (2007) come the findings set out here.

The structures appear in SMILES notation. In brackets after ≈: the same amount, converted by molar mass.

For the first assay, the system named is Mycobacterium tuberculosis. Put plainly: Antibacterial activity against Mycobacterium tuberculosis H190 by dilution method. In kind it is functional.
Settings: not given
Regarding `CCCCCCCC/C=C\CCCCCCCC(=O)OC(COC(=O)CCCCCCC)CO[C@@H]1O[C@H](CO)[C@@H](O)[C@H](O)[C@H]1O` (stereo partly drawn), the lowest concentration to inhibit growth (MIC) was 64 µg/mL (≈ 99.2 µM).

`CC/C=C\C/C=C\C/C=C\CCCCCCCC(=O)OC(COC(=O)CCCCCCC)CO[C@@H]1O[C@H](CO)[C@@H](O)[C@H](O)[C@H]1O` (stereo partly drawn): the MIC was 64 µg/mL (≈ 99.9 µM).

For another assay, the system named is Candida albicans. Put plainly: Antifungal activity against Candida albicans by dilution method. It is filed as functional.
Settings: not given
For `CCCCCCCC/C=C\CCCCCCCC(=O)OC(COC(=O)CCCCCCC)CO[C@@H]1O[C@H](CO)[C@@H](O)[C@H](O)[C@H]1O` (stereo partly drawn), the minimum inhibitory concentration (MIC) was more than 128 µg/mL.

Regarding `CC/C=C\C/C=C\C/C=C\CCCCCCCC(=O)OC(COC(=O)CCCCCCC)CO[C@@H]1O[C@H](CO)[C@@H](O)[C@H](O)[C@H]1O` (stereo partly drawn), the minimum inhibitory concentration (MIC) was more than 128 µg/mL.

A further assay concerns Staphylococcus aureus. Put plainly: Antibacterial activity against Staphylococcus aureus SA87 isolate. It is filed as functional. The conditions noted are these: Staphylococcus aureus; read-out: MIC.
For the molecule `CCCCCCCC/C=C\CCCCCCCC(=O)OC(COC(=O)CCCCCCC)CO[C@@H]1O[C@H](CO)[C@@H](O)[C@H](O)[C@H]1O` (stereo partly drawn), the MIC came to 64 µg/mL (≈ 99.2 µM).

For `CC/C=C\C/C=C\C/C=C\CCCCCCCC(=O)OC(COC(=O)CCCCCCC)CO[C@@H]1O[C@H](CO)[C@@H](O)[C@H](O)[C@H]1O` (stereo partly drawn), the MIC was 64 µg/mL (≈ 99.9 µM).

In a further assay the test system is Kluyveromyces marxianus. Put plainly: Antifungal activity against Candida pseudotropicalis by dilution method. In kind it is functional.
Settings: not given
Molecule `CCCCCCCC/C=C\CCCCCCCC(=O)OC(COC(=O)CCCCCCC)CO[C@@H]1O[C@H](CO)[C@@H](O)[C@H](O)[C@H]1O` (stereo partly drawn) gave an MIC of more than 128 µg/mL.

`CC/C=C\C/C=C\C/C=C\CCCCCCCC(=O)OC(COC(=O)CCCCCCC)CO[C@@H]1O[C@H](CO)[C@@H](O)[C@H](O)[C@H]1O` (stereo partly drawn) displayed an MIC of more than 128 µg/mL.

A further assay relates to Staphylococcus aureus. The experiment in a line: Antibacterial activity against Staphylococcus aureus ATCC 105487.
Settings: not given
It is filed as functional.
The molecule `CCCCCCCC/C=C\CCCCCCCC(=O)OC(COC(=O)CCCCCCC)CO[C@@H]1O[C@H](CO)[C@@H](O)[C@H](O)[C@H]1O` (stereo partly drawn) yielded a minimum inhibitory concentration (MIC) of more than 128 µg/mL.

The molecule `CC/C=C\C/C=C\C/C=C\CCCCCCCC(=O)OC(COC(=O)CCCCCCC)CO[C@@H]1O[C@H](CO)[C@@H](O)[C@H](O)[C@H]1O` (stereo partly drawn) gave an MIC of more than 128 µg/mL.

The next assay deals with Staphylococcus aureus. Put plainly: Antibacterial activity against Staphylococcus aureus ATCC 25923. It is filed as functional.
Settings: not given
For the molecule `CCCCCCCC/C=C\CCCCCCCC(=O)OC(COC(=O)CCCCCCC)CO[C@@H]1O[C@H](CO)[C@@H](O)[C@H](O)[C@H]1O` (stereo partly drawn), the MIC was more than 128 µg/mL.

`CC/C=C\C/C=C\C/C=C\CCCCCCCC(=O)OC(COC(=O)CCCCCCC)CO[C@@H]1O[C@H](CO)[C@@H](O)[C@H](O)[C@H]1O` (stereo partly drawn) returned a minimum inhibitory concentration (MIC) of more than 128 µg/mL.

A further assay concerns Mycobacterium tuberculosis. Put plainly: Antibacterial activity against Mycobacterium tuberculosis H37Rv by dilution method. To be noted: Mycobacterium tuberculosis, H37Rv; read-out: MIC. It is filed as functional.
As to `CCCCCCCC/C=C\CCCCCCCC(=O)OC(COC(=O)CCCCCCC)CO[C@@H]1O[C@H](CO)[C@@H](O)[C@H](O)[C@H]1O` (stereo partly drawn), the MIC amounted to 64 µg/mL (≈ 99.2 µM).

Consider `CC/C=C\C/C=C\C/C=C\CCCCCCCC(=O)OC(COC(=O)CCCCCCC)CO[C@@H]1O[C@H](CO)[C@@H](O)[C@H](O)[C@H]1O` (stereo partly drawn), for which the MIC turned out to be 64 µg/mL (≈ 99.9 µM).

A further assay has as its system Enterococcus faecalis. Put plainly: Antibacterial activity against Enterococcus faecalis ATCC 29212. In kind it is functional.
Settings: not given
`CCCCCCCC/C=C\CCCCCCCC(=O)OC(COC(=O)CCCCCCC)CO[C@@H]1O[C@H](CO)[C@@H](O)[C@H](O)[C@H]1O` (stereo partly drawn) yielded an MIC of more than 128 µg/mL.

`CC/C=C\C/C=C\C/C=C\CCCCCCCC(=O)OC(COC(=O)CCCCCCC)CO[C@@H]1O[C@H](CO)[C@@H](O)[C@H](O)[C@H]1O` (stereo partly drawn): the minimum inhibitory concentration (MIC) was more than 128 µg/mL.

In a further assay the test system is Pseudomonas aeruginosa. The experiment in a line: Antibacterial activity against Pseudomonas aeruginosa ATCC 27753. In kind it is functional.
Settings: not given
`CCCCCCCC/C=C\CCCCCCCC(=O)OC(COC(=O)CCCCCCC)CO[C@@H]1O[C@H](CO)[C@@H](O)[C@H](O)[C@H]1O` (stereo partly drawn) showed an MIC of more than 128 µg/mL.

`CC/C=C\C/C=C\C/C=C\CCCCCCCC(=O)OC(COC(=O)CCCCCCC)CO[C@@H]1O[C@H](CO)[C@@H](O)[C@H](O)[C@H]1O` (stereo partly drawn) yielded an MIC of more than 128 µg/mL.

In the next assay the test system is Bacillus subtilis. The experiment in a line: Antibacterial activity against Bacillus subtilis ATCC 6633. It is filed as functional. To be noted: Bacillus subtilis, ATCC 6633; read-out: MIC.
As for `CCCCCCCC/C=C\CCCCCCCC(=O)OC(COC(=O)CCCCCCC)CO[C@@H]1O[C@H](CO)[C@@H](O)[C@H](O)[C@H]1O` (stereo partly drawn), the minimal inhibitory concentration (MIC) was determined as 128 µg/mL (≈ 198 µM).

In the case of `CC/C=C\C/C=C\C/C=C\CCCCCCCC(=O)OC(COC(=O)CCCCCCC)CO[C@@H]1O[C@H](CO)[C@@H](O)[C@H](O)[C@H]1O` (stereo partly drawn), the MIC was 128 µg/mL (≈ 200 µM).

In the next assay the test system is Staphylococcus aureus. Put plainly: Antibacterial activity against Staphylococcus aureus SA52 isolate. It is filed as functional.
Settings: not given
The molecule `CCCCCCCC/C=C\CCCCCCCC(=O)OC(COC(=O)CCCCCCC)CO[C@@H]1O[C@H](CO)[C@@H](O)[C@H](O)[C@H]1O` (stereo partly drawn) came in with an MIC of more than 128 µg/mL.

Molecule `CC/C=C\C/C=C\C/C=C\CCCCCCCC(=O)OC(COC(=O)CCCCCCC)CO[C@@H]1O[C@H](CO)[C@@H](O)[C@H](O)[C@H]1O` (stereo partly drawn) showed an MIC of more than 128 µg/mL.

The subject of another assay is Mycobacterium tuberculosis. Put plainly: Antibacterial activity against Mycobacterium tuberculosis H160 by dilution method. It is filed as functional. The conditions noted are these: Mycobacterium tuberculosis, H160; read-out: MIC.
As for `CCCCCCCC/C=C\CCCCCCCC(=O)OC(COC(=O)CCCCCCC)CO[C@@H]1O[C@H](CO)[C@@H](O)[C@H](O)[C@H]1O` (stereo partly drawn), the MIC is 64 µg/mL (≈ 99.2 µM).

With `CC/C=C\C/C=C\C/C=C\CCCCCCCC(=O)OC(COC(=O)CCCCCCC)CO[C@@H]1O[C@H](CO)[C@@H](O)[C@H](O)[C@H]1O` (stereo partly drawn), the minimum inhibitory concentration (MIC) was determined as 128 µg/mL (≈ 200 µM).

The next assay relates to Escherichia coli. Put plainly: Antibacterial activity against Escherichia coli ATCC 25922.
Settings: not given
It is filed as functional.
On to `CCCCCCCC/C=C\CCCCCCCC(=O)OC(COC(=O)CCCCCCC)CO[C@@H]1O[C@H](CO)[C@@H](O)[C@H](O)[C@H]1O` (stereo partly drawn), for which the minimum inhibitory concentration (MIC) was more than 128 µg/mL.

With `CC/C=C\C/C=C\C/C=C\CCCCCCCC(=O)OC(COC(=O)CCCCCCC)CO[C@@H]1O[C@H](CO)[C@@H](O)[C@H](O)[C@H]1O` (stereo partly drawn), the minimum inhibitory concentration (MIC) was more than 128 µg/mL.

For the next assay, the system named is Staphylococcus aureus. Put plainly: Antibacterial activity against Staphylococcus aureus SA85 isolate. In kind it is functional.
Settings: not given
Take `CCCCCCCC/C=C\CCCCCCCC(=O)OC(COC(=O)CCCCCCC)CO[C@@H]1O[C@H](CO)[C@@H](O)[C@H](O)[C@H]1O` (stereo partly drawn): the MIC is more than 128 µg/mL.

On to `CC/C=C\C/C=C\C/C=C\CCCCCCCC(=O)OC(COC(=O)CCCCCCC)CO[C@@H]1O[C@H](CO)[C@@H](O)[C@H](O)[C@H]1O` (stereo partly drawn), for which the MIC is more than 128 µg/mL.
